Bridge positions count the residues as written; N and C are the ends. Square brackets hold non-standard residues; d marks the D form. Peptide text beside a SMILES is read from it. Dab = NCC[C@H](N)C(=O)O
Columns and labels:
K. pneumoniae 113254 = test: Checkerboard assay; format: cell-based, Klebsiella pneumoniae
Description: (§1) The adjuvant properties of the guanidinylated polymyxins were evaluated using the checkerboard assay as previously described. The bacterial solution was prepared as described in the antimicrobial susceptibility assay. The antibiotic of interest and the adjuvant were serially diluted two-fold along the x- and y-axis on a 96-well plate, respectively, resulting in varying concentrations of both agents in each well. Equal volumes of bacterial solution were added to the designated wells. The well consisting of bacterial solution served as the positive control, while the wells containing only media served as the negative control. The plate was then incubated at 37 °C for 18 h. After incubation, an Emax Plus microplate reader (Molecular Devices, Union City, CA, USA) was used to measure the OD at a wavelength of 590 nm to confirm the turbidity. The fractional inhibitory concentration (FIC) index was then determined to establish the relationship between the antibiotic and adjuvant. The FIC index corresponds to the sum of the FICs of the antibiotic and adjuvant. The FIC of each agent is calculated by dividing its MIC when it is used in combination by its MIC when used alone. FIC indices ≤0.5, 0.5 < x ≤ 4 and >4 indicate synergy, additivity and antagonism, respectively.

K. pneumoniae 113250 = test: Checkerboard assay; format: cell-based, Klebsiella pneumoniae
Description: as §1

[1] = system: P. aeruginosa P264-104354; test: Checkerboard assay; format: cell-based, Pseudomonas aeruginosa
In short: (§2)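 Antibiotic and guanidinylated polymyxin adjuvant were two-fold serially diluted across perpendicular axes, combined with bacterial suspension and incubated 18 h at 37 °C. Turbidity was read as OD590. FIC index is the sum of each agent's MIC in combination divided by its MIC alone: ≤0.5 synergy, 0.5–4 additivity, >4 antagonism.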

P. aeruginosa 101243 = test: Checkerboard assay; format: cell-based, Pseudomonas aeruginosa
In short: as §2

E. coli 94474 = test: Checkerboard assay; format: cell-based, Escherichia coli
Description: as §1

E. coli 94393 = test: Checkerboard assay; format: cell-based, Escherichia coli
Description: as §1

P. aeruginosa 114228 = test: microbe, parasite or virus in culture; format: cell-based, Pseudomonas aeruginosa
In short: as §2

A. baumannii ATCC 17978 = format: cell-based, Acinetobacter baumannii; conditions: ATCC 17978, 18 h
Description: (§3) For the preparation of the bacterial solution, overnight grown culture was diluted in 0.85% saline solution, adjusted to 0.5 McFarland turbidity and further diluted in Mueller–Hinton broth for inoculation to a final concentration of 5 × 10^5 colony forming units/mL (CFU/mL). The agents were serially diluted two-fold in a 96-well plate, and equal volumes of bacterial solution were subsequently added to the designated wells. The well consisting of bacterial solution served as the positive control, while the well containing only media served as the negative control. The plate was then incubated at 37 °C for 18 h. After incubation, an Emax Plus microplate reader (Molecular Devices, Union City, CA, USA) was used to measure the optical density (OD) at a wavelength of 590 nm to confirm the turbidity. The antibacterial activity corresponded to the MIC, which is defined as the lowest concentration of the agent necessary to inhibit visible bacterial growth.

A. baumannii 92247 = format: cell-based, Acinetobacter baumannii; conditions: 92247, 18 h
Description: as §3

A. baumannii LAC-4 = format: cell-based, Acinetobacter baumannii; conditions: LAC-4, 18 h
Description: as §3

[2] = agent alone, one value per checkerboard plate

CC(C)C[C@@H]1NC(=O)[C@@H](Cc2ccccc2)NC(=O)[C@H](CCN)NC(=O)[C@@H](NC(=O)[C@H](CCN)NC(=O)[C@@H](N)[C@@H](C)O)CCNC(=O)[C@H]([C@@H](C)O)NC(=O)[C@H](CCN)NC(=O)[C@H](CCN)NC1=O [PMBN, polymyxin B nonapeptide] (H-T[Dab][Dab][Dab][dF]L[Dab][Dab]T; lactam 3-C (inferred); N-terminus assumed)
> 256 mg/L: MIC alone (K. pneumoniae 113254; [2]) | MIC alone (K. pneumoniae 113250; [2]) | MIC alone [1, 2] | MIC alone (P. aeruginosa 101243; [2]) | MIC alone (E. coli 94474; [2]) | MIC alone (E. coli 94393; [2])
2: Fold-potentiation of aztreonam ([1]; with 2 μg/mL adjuvant) | Fold-potentiation of aztreonam (P. aeruginosa 101243; with 8 μg/mL adjuvant)
64: Fold-potentiation of rifampicin ([1]; with 2 μg/mL adjuvant)
1: Fold-potentiation of ceftazidime ([1]; with 2 μg/mL adjuvant) | Fold-potentiation of erythromycin ([1]; with 2 μg/mL adjuvant) | Fold-potentiation of erythromycin (P. aeruginosa 101243; with 8 μg/mL adjuvant) | Fold-potentiation of erythromycin (E. coli 94474; with 4 μg/mL adjuvant) | Fold-potentiation of aztreonam (P. aeruginosa 114228; with 8 μg/mL adjuvant) | Fold-potentiation of erythromycin (P. aeruginosa 114228; with 8 μg/mL adjuvant)
8: Fold-potentiation of erythromycin (K. pneumoniae 113250; with 8 μg/mL adjuvant) | Fold-potentiation of rifampicin (K. pneumoniae 113250; with 8 μg/mL adjuvant) | Fold-potentiation of ceftazidime (P. aeruginosa 101243; with 8 μg/mL adjuvant) | Fold-potentiation of rifampicin (P. aeruginosa 101243; with 8 μg/mL adjuvant) | Fold-potentiation of rifampicin (E. coli 94474; with 4 μg/mL adjuvant) | Fold-potentiation of erythromycin (E. coli 94393; with 2 μg/mL adjuvant) | Fold-potentiation of rifampicin (E. coli 94393; with 2 μg/mL adjuvant) | Fold-potentiation of ceftazidime (P. aeruginosa 114228; with 8 μg/mL adjuvant) | Fold-potentiation of rifampicin (P. aeruginosa 114228; with 8 μg/mL adjuvant)
4: Fold-potentiation of erythromycin (K. pneumoniae 113254; with 8 μg/mL adjuvant) | Fold-potentiation of rifampicin (K. pneumoniae 113254; with 8 μg/mL adjuvant)
256 mg/L: MIC alone (P. aeruginosa 114228; 114228, 18 h)
>256 mg/L: MIC (A. baumannii ATCC 17978) | MIC (A. baumannii 92247) | MIC (A. baumannii LAC-4)

Reference: paper PMC9598282 (Antibiotics, 2022)
